Values quoted from earlier work as cited in patent publication EP0759941B1, “HETERODIMER POLYPEPTIDEIMMUNOGEN CARRIER COMPOSITION AND METHOD FOR THEIR USE” (S.P.I. SYNTHETIC PEPTIDES INCORPORATED, priority 1994, dated 1995).

System: primed (human) donors
Settings: recognized by all primed (human) donors; cited from earlier work

In the case of “TT2: tetanus toxoid residues 830-846; SEQ ID NO:12; T-cell antigen (QYIKANSKFIGITELKK; UniProt P04958 830-846, looked up, fragment) [tetanus toxoid residues 830-846; T-cell antigen]”, the “immunogenicity (recognition by primed donors irrespective of MHC haplotypes)” value is listed as “universally immunogenic”.
In the case of “TT3: tetanus toxoid residues 947-967; SEQ ID NO:14 (FNNFTVSFWLRVPKVSASHLE; UniProt P04958 947-967, looked up, fragment)”, the “immunogenicity (recognition by primed donors irrespective of MHC haplotypes)” value is listed as “universally immunogenic”.
